Source: patent publication US8940896B2, “Tetra-cyclic carboline derivatives useful in the inhibition of angiogenesis” (PTC Therapeutics, Inc., priority 2004, dated 2015)

Test system: VEGF
Assay: Hypoxia-inducible endogenous VEGF expression, VEGF ELISA assay
Assay type: cell-based
Settings: HeLa cells, hypoxic conditions (1% O2, 5% CO2), VEGF in conditioned media
Description: The ability of the compounds of the invention to modulate hypoxia-inducible endogenous VEGF expression may be analyzed as follows. VEGF protein levels may be monitored by an ELISA assay (R&D Systems). Briefly, HeLa cells may be cultured for 24-48 hours under hypoxic conditions (1% O2, 5% CO2, balanced with nitrogen) in the presence or absence of a compound of the invention. The conditioned media may then be assayed by ELISA, and the concentration of VEGF calculated from the standard ELISA curve of each assay.
A dose-response analysis may be performed using the ELISA assay and conditions described above. The conditions for the dose-response ELISA are analogous to those described above. A series of, e.g., seven different concentrations may be analyzed. In parallel, a dose-response cytotoxicity assay may be performed using CellTiter Glo (Promega) under the same conditions as the ELISA to ensure that the inhibition of VEGF expression was not due to the cytotoxicity. Dose-response curves may be plotted using percentage inhibition versus concentration of the compound, and EC50 and CC50 values may be generated for each compound with the maximal inhibition set as 100% and the minimal inhibition as 0%.

SMILES	EC50 (Homo sapiens, HeLa) [nM]	EC50 [nM]
CC(=O)N1CCN(CCCOc2ccc(C3c4[nH]c5ccc(Br)cc5c4CC4C(=O)N(C(C)C)C(=S)N43)cc2)CC1 (centres unmarked) [Compound 152]	< 8	
CC(C)N1C(=O)C2Cc3c([nH]c4ccc(Br)cc34)C(c3ccc(OCCCN4CCOCC4)cc3)N2C1=S (centres unmarked) [Compound 153]	8 to 40	
CCN(CC)CCCOc1ccc(C2c3[nH]c4ccc(Br)cc4c3CC3C(=O)N(C(C)C)C(=S)N32)cc1 (centres unmarked) [Compound 154]	< 8	
CC(C)NCCCOc1ccc(C2c3[nH]c4ccc(Br)cc4c3CC3C(=O)N(C(C)C)C(=S)N32)cc1 (centres unmarked) [Compound 155]	< 8	
COCCN(CCCOc1ccc(C2c3[nH]c4ccc(Br)cc4c3CC3C(=O)N(C(C)C)C(=S)N32)cc1)CCOC (centres unmarked) [Compound 156]	8 to 40	
CC(C)N1C(=O)C2Cc3c([nH]c4ccc(Br)cc34)C(c3ccc(OCCCN4CCSCC4)cc3)N2C1=S (centres unmarked) [Compound 157]	40 to 200	
COCCN(C)CCCOc1ccc(C2c3[nH]c4ccc(Br)cc4c3CC3C(=O)N(C(C)C)C(=S)N32)cc1 (centres unmarked) [Compound 158]	< 8	
CC(C)N1C(=O)C2Cc3c([nH]c4ccc(Br)cc34)C(c3ccc(OCCCN4CCN(C)CC4)cc3)N2C1=S (centres unmarked) [Compound 159]	< 8	
CC(C)N1C(=O)C2Cc3c([nH]c4ccc(Br)cc34)C(c3ccc(OCCCn4ccnc4)cc3)N2C1=S (centres unmarked) [Compound 160]	8 to 40	
COc1ccc(C2c3[nH]c4ccc(Br)cc4c3CC3C(=O)N(c4cccc(C(F)(F)F)c4)C(=S)N32)cc1 (centres unmarked) [Compound 162]	< 8	
COc1ccc(C2c3[nH]c4ccc(Br)cc4c3CC3C(=O)N(c4ccc(C(F)(F)F)cc4)C(=S)N32)cc1 (centres unmarked) [Compound 163]	< 8	
COc1ccc(C2c3[nH]c4ccc(Br)cc4c3CC3C(=O)N(c4ccccc4Cl)C(=S)N32)cc1 (centres unmarked) [Compound 164]	40 to 200	
COc1ccc(C2c3[nH]c4ccc(Br)cc4c3CC3C(=O)N(c4cccc(Cl)c4)C(=S)N32)cc1 (centres unmarked) [Compound 165]	< 8	
COc1ccc(C2c3[nH]c4ccc(Br)cc4c3CC3C(=O)N(c4ccccc4F)C(=S)N32)cc1 (centres unmarked) [Compound 166]	8 to 40	
COc1ccc(C2c3[nH]c4ccc(Br)cc4c3CC3C(=O)N(c4cccc(F)c4)C(=S)N32)cc1 (centres unmarked) [Compound 167]	< 8	
COc1ccc(C2c3[nH]c4ccc(Br)cc4c3CC3C(=O)N(c4ccc(F)cc4)C(=S)N32)cc1 (centres unmarked) [Compound 168]	< 8	
COc1ccc(C2c3[nH]c4ccc(Br)cc4c3CC3C(=O)N(c4ccccc4C)C(=S)N32)cc1 (centres unmarked) [Compound 169]	40 to 200	
COc1ccc(C2c3[nH]c4ccc(Br)cc4c3CC3C(=O)N(c4cccc(C)c4)C(=S)N32)cc1 (centres unmarked) [Compound 170]	< 8	
COc1ccc(C2c3[nH]c4ccc(Br)cc4c3CC3C(=O)N(c4ccc(C)cc4)C(=S)N32)cc1 (centres unmarked) [Compound 171]	< 8	
COc1ccc(C2c3[nH]c4ccc(Br)cc4c3CC3C(=O)N(c4ccc(F)cc4F)C(=S)N32)cc1 (centres unmarked) [Compound 172]	< 8	
COc1ccc(C2c3[nH]c4ccc(Br)cc4c3CC3C(=O)N(c4ccc(Cl)c(C(F)(F)F)c4)C(=S)N32)cc1 (centres unmarked) [Compound 173]	< 8	
COc1ccc(C2c3[nH]c4ccc(Br)cc4c3CC3C(=O)N(c4ccc(F)cc4Cl)C(=S)N32)cc1 (centres unmarked) [Compound 174]	40 to 200	
COc1ccc(C2c3[nH]c4ccc(Br)cc4c3CC3C(=O)N(c4cccc(Br)c4)C(=S)N32)cc1 (centres unmarked) [Compound 175]	< 8	
COc1ccc(C2c3[nH]c4ccc(Br)cc4c3CC3C(=O)N(c4ccc([N+](=O)[O-])cc4)C(=S)N32)cc1 (centres unmarked) [Compound 176]	< 8	

SMILES	EC50 (Homo sapiens, HeLa) [nM]	EC50 [nM]
COc1ccc(C2c3[nH]c4ccc(Br)cc4c3CC3C(=O)N(c4ccc(OC)cc4C)C(=S)N32)cc1 (centres unmarked) [Compound 177]	40 to 200	
COc1ccc(C2c3[nH]c4ccc(Br)cc4c3CC3C(=O)N(C(=O)c4ccccc4)C(=S)N32)cc1 (centres unmarked) [Compound 178]	40 to 200	
COc1ccc(C2c3[nH]c4ccc(Br)cc4c3CC3C(=O)N(c4ccc5c(c4)OCO5)C(=S)N32)cc1 (centres unmarked) [Compound 179]	< 8	
COc1ccc(C2c3[nH]c4ccc(Br)cc4c3CC3C(=O)N(Cc4ccco4)C(=S)N32)cc1 (centres unmarked) [Compound 180]	< 8	
COc1ccc(C2c3[nH]c4ccc(Br)cc4c3CC3C(=O)N(CCc4ccccc4)C(=S)N32)cc1 (centres unmarked) [Compound 181]	< 8	
COc1ccc(C2c3[nH]c4ccc(Br)cc4c3CC3C(=O)N(c4cccc(OC(C)=O)c4)C(=S)N32)cc1 (centres unmarked) [Compound 182]	< 8	
COc1ccc(C2c3[nH]c4ccc(Br)cc4c3CC3C(=O)N(c4ccccc4C(C)C)C(=S)N32)cc1 (centres unmarked) [Compound 183]	40 to 200	
CC(C)N1C(=O)C2Cc3c([nH]c4ccc(Br)cc34)C(c3ccc(OCCCn4cncn4)cc3)N2C1=S (centres unmarked) [Compound 184]	< 8	
COc1ccc(C2c3[nH]c4ccc(Br)cc4c3CC3C(=O)N(C4CCCCC4)C(=S)N32)cc1 (centres unmarked) [Compound 185]		< 8
COc1ccc(C2c3[nH]c4ccc(Br)cc4c3CC3C(=O)N(C4CCCCC4)C(=S)N32)cc1 (centres unmarked) [Compound 186]		< 8
COc1ccc(C2c3[nH]c4ccc(Br)cc4c3CC3C(=O)N(C4CCCCC4)C(=S)N32)cc1 (centres unmarked) [Compound 187]		> 1000
O=C1C2Cc3c([nH]c4ccc(Br)cc34)C(c3ccc(OCCCCl)cc3)N2C(=S)N1c1ccc(Cl)cc1 (centres unmarked) [Compound 188]	< 8	
O=C1C2Cc3c([nH]c4ccc(Br)cc34)C(c3ccc(OCCCN4CCCC4)cc3)N2C(=S)N1c1ccc(Cl)cc1 (centres unmarked) [Compound 189]	8 to 40	
O=C1C2Cc3c([nH]c4ccc(Br)cc34)C(c3ccc(OCCCN4CCCCC4)cc3)N2C(=S)N1c1ccc(Cl)cc1 (centres unmarked) [Compound 190]	8 to 40	
O=C1C2Cc3c([nH]c4ccc(Br)cc34)C(c3ccc(OCCCN4CCOCC4)cc3)N2C(=S)N1c1ccc(Cl)cc1 (centres unmarked) [Compound 192]	< 8	
CCN(CC)CCCOc1ccc(C2c3[nH]c4ccc(Br)cc4c3CC3C(=O)N(c4ccc(Cl)cc4)C(=S)N32)cc1 (centres unmarked) [Compound 193]	8 to 40	
CC(C)NCCCOc1ccc(C2c3[nH]c4ccc(Br)cc4c3CC3C(=O)N(c4ccc(Cl)cc4)C(=S)N32)cc1 (centres unmarked) [Compound 194]	8 to 40	
O=C1C2Cc3c([nH]c4ccc(Br)cc34)C(c3ccc(OCCCN4CCSCC4)cc3)N2C(=S)N1c1ccc(Cl)cc1 (centres unmarked) [Compound 196]	< 8	
CCOCN(C)CCCOc1ccc(C2c3[nH]c4ccc(Br)cc4c3CC3C(=O)N(c4ccc(Cl)cc4)C(=S)N32)cc1 (centres unmarked) [Compound 197]	8 to 40	
CN1CCN(CCCOc2ccc(C3c4[nH]c5ccc(Br)cc5c4CC4C(=O)N(c5ccc(Cl)cc5)C(=S)N43)cc2)CC1 (centres unmarked) [Compound 198]	< 8	
O=C1C2Cc3c([nH]c4ccc(Br)cc34)C(c3ccc(OCCCn4ccnc4)cc3)N2C(=S)N1c1ccc(Cl)cc1 (centres unmarked) [Compound 199]	< 8	
COc1ccc(C2c3[nH]c4ccc(Br)cc4c3CC3C(=O)N(c4ccc(C(=O)O)cc4)C(=S)N32)cc1 (centres unmarked) [Compound 200]	8 to 40	
COc1ccc(C2c3[nH]c4ccc(Br)cc4c3CC3C(=O)N(Cc4ccc(Cl)cc4)C(=S)N32)cc1 (centres unmarked) [Compound 201]	< 8	
